Like-named read-outs stand apart in the source and are kept apart here. Bounds are passed on as bounds.

The nature of data set [1]: Single-dose PK experiment of 2a. As to conditions: for concentration at 30 min: intraperitoneal, 20 mg/kg.
For data set [2], the target named is NfCYP51 (Naegleria fowleri, UniProt A0A2H4A2U9). Nature of the data set: biochemical. In kind it is binding.
For data set [3] the following is noted: cited from earlier work.
Data set [4] relates to N. fowleri European KUL strain. The data set can be described thus: Primary phenotypic organism-based screen at 10 μM (384-well). The data set is classed as cell-based. The note with it: Naegleria fowleri.
Data set [5] deals with N. fowleri European KUL strain. The data set can be described thus: Naegleria cell-based assay, dose–response (CellTiter-Glo viability, 48 h).
Procedure: The compounds were screened against N. fowleri European KUL strain axenically cultured in Nelson’s medium supplemented with 10% fetal bovine serum at 37 °C.[59] The screening assay in 96- and 384-well formats (Z’-value of 0.95 ± 0.1) was performed as described elsewhere.[9] All the experiments were performed using trophozoites harvested during the logarithmic phase of growth.[60] The primary screen was performed in duplicate at 10 μM in a 384-well format (2,500 amoebae/well). The dose–response curves were generated in triplicate for the follow up compounds by serial dilution of compounds from 50 to 0.39 μM in a 96-well plate with 10,000 amoebae/well. Assay plates were incubated for 48 h at 37 °C, and cell viability was determined by a CellTiter-Glo Luminescent Cell Viability Assay.[9],[58]
A short description of data set [6]: in vivo. The note with it: female, C57BL/6, mouse, ip, 40 mg/kg. The method, then:
All mice were maintained on a 12 h light/dark cycle in a temperature-controlled environment with access to food and water ad libitum. […] Mice were sacrificed 1 h following the drug administration, and blood and brain samples were collected. Blood (100 μL) was quickly added with 5-fold H2O/CH3CN 8:2, centrifugated to 2500 rpm for 15 min, and plasma was collected. Brain was homogenized in 0.5 mL of distilled water and added with 2 mL of CH3CN. Thus, homogenates were centrifugated to 2500 rpm for 15 min and the supernatants were collected. Plasma and brain supernatants were stored at −20 °C until analysis.
All experiments involving animals were carried out according to Sapienza University’s Ethics Committee, approval code 890/2021-PR, approved on 17 November 2021. Animal care followed the IASP and European Community (EC L358/1, 18/12/86) guidelines on using and protecting animals in experimental research. Eight week-old female C57BL/6 mice were used for the experiments (Charles River, Lecco, Italy).
The targeted analysis was performed by a Waters system composed of a 1525 μ HPLC (Milford, MA, USA), coupled with a Quattro Micro Tandem MS/MS with an ESI source (Micromass, Manchester UK), using a Supelco Ascentis Express C18 (15 cm × 2.1 mm) 2.7 μm analytical column, A (deionized water/formic acid 0.02%) and B (acetonitrile/formic acid 0.02%) as mobile phase, with the following optimized elution binary gradient with linear interpolation: 0–1 min, 30% B; 1–16 min, 45% B; 16–17 min, 45% B; 17–18 min, 30% B; 18–38 min, 30% B to equilibrate the column, flow rate 0.20 mL min^–1. […] Data acquisition, data handling, and instrument control were performed by MassLynx Software 4.1 v (Data Handling System for Windows, Micromass, UK).
Calibration curves were calculated with equal weighted least-squares linear regression analysis of the MRM peak area against the standard nominal concentration. […] The matrix effect (ME) for each compound, in brain (B) and in plasma (P), was evaluated by comparing the matrix-matching calibration curve (2.5, 10, 25, and 50 ng mL^–1) with the corresponding calibration curve.[65]
The biological samples were appropriately diluted with the mobile phase (A:B, 70:30, v:v), filtered at 0.22 μm, and analyzed in triplicate (25 μL injected).

The test system of data set [7] is N. fowleri European KUL strain. As to conditions: amoebicidal effect; cited from earlier work.
The subject of data set [8] is Naegleria. As to conditions: mouse model of PAM, 20 mg/kg dose; cited from earlier work.
The mark [9] stands for this setting: 10 µM, supplement CSV, read-out: % Inhibition at 10 µM against N. fowleri KUL strain.
Where [10] appears, read: Table S1, mean of two biological duplicates, read-out: % Inhibition at 10 µM.
Setting [11] is: 0.5 μM NfCYP51, inhibitor 0.025–0.5 μM, ≤ values estimated from linear dependence of binding, read-out: KD.
[12] abbreviates: concentration for 50% growth inhibition from dose–response curves, triplicate, axenically cultured N. fowleri trophozoites.
Setting [13] is: average brain distribution coefficient (brain/plasma ratio).

NfCYP51, sequence (A0A2H4A2U9 entry or part of it): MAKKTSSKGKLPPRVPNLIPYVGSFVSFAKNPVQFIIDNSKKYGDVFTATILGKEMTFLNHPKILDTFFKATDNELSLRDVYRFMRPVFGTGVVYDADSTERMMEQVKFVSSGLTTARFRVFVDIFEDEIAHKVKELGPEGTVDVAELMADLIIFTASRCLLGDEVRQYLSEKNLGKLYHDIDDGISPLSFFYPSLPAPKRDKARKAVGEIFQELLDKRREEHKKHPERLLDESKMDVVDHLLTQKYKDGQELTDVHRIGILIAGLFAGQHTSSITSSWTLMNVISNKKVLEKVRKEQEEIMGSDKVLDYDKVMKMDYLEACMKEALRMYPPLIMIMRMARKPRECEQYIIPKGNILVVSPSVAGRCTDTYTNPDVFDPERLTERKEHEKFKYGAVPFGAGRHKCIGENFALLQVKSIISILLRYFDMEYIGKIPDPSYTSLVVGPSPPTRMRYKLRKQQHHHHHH

Take `O=C(O)c1cccc(C(F)(F)F)c1` [3-trifluoro benzoic acid]: in data set [1] (after 2a 20 mg/kg intraperitoneally), the “circulating metabolite of 2a” value was “one of the main circulating metabolites for up to 24 h”.

Consider `Clc1ccc(COC(Cn2ccnc2)c2ccc(Cl)cc2Cl)c(Cl)c1` (centres unmarked) [Compound 1, miconazole], for which the Kd (in general, the concentration at which binding is half-saturated) in data set [2] was not above 5 nM. Besides, the elimination half-life in data set [3] was 24 h.

For the compound `O=C(OC(Cn1ccnc1)c1ccc(F)cc1)c1cccc(C(F)(F)F)c1` (centres unmarked) [Compound 2a], the inhibition (commonly the drop in the measured response relative to a control, in per cent) at 10 µM in data set [4] (read-out: % inhibition at 10 μM, 10 μM, N. fowleri KUL strain) was approximately 50%; in data set [4] (setting [9]), 51.5 ± 13.4%; in data set [4] (setting [10]), 51.5 ± 13.4%. Further, the Kd in data set [2] (setting [11]) was 88 ± 4 nM. The results for the concentration at 30 min in data set [1] (brain) and in data set [1] (plasma) were 100 ng/g and 4 ng/mL, respectively.

For the compound `O=C(OC(Cn1ccnc1)c1ccccc1)c1cccc(C(F)(F)F)c1` (centres unmarked) [Compound 2c], the inhibition at 10 µM in data set [4] (setting [9]) and in data set [4] (setting [10]) was 53.5 ± 6.4% each time.

`O=C(Nc1ccc(N2CCN(c3ccc(Cl)cc3)CC2)cc1)OC(Cn1ccnc1)c1ccc(F)cc1` (centres unmarked) [Compound 2d]: the inhibition at 10 µM in data set [4] (setting [9]) and in data set [4] (setting [10]) was 66.5 ± 3.5% throughout.

`COc1ccc(CC(c2ccc(OC)cc2)n2ccnc2)cc1` (centres unmarked) [Compound 2e]: the inhibition at 10 µM in data set [4] (setting [9]) and in data set [4] (setting [10]) was 49.5 ± 6.4% throughout.

On to `COc1ccc(C(Cc2ccc(Cl)cc2)n2ccnc2)cc1` (centres unmarked) [Compound 2f], for which the inhibition at 10 µM in data set [4] (setting [9]) and in data set [4] (setting [10]) was 54.5 ± 0.7% throughout.

Regarding `Clc1ccc(C(c2ccn(-c3ccc(Cl)cc3)c2)n2ccnc2)cc1` (centres unmarked) [Compound 2g], the inhibition at 10 µM in data set [4] (setting [9]) and in data set [4] (setting [10]) was 47 ± 7.1% in each case.

In the case of `Clc1ccc(-n2ccc(C(c3ccccc3)n3ccnc3)c2)cc1` (centres unmarked) [Compound 2h], the inhibition at 10 µM in data set [4] (setting [9]) and in data set [4] (setting [10]) was 49 ± 9.9% throughout.

Turning to `COc1ccc(C(Cc2ccc(-n3cccc3)cc2)n2ccnc2)cc1` (centres unmarked) [Compound 2i], the inhibition at 10 µM in data set [4] (setting [9]) and in data set [4] (setting [10]) was 37.5 ± 30.4% each time.

Take `COc1ccc([C@H](Cn2ccnc2)OC(=O)c2cccc(C(F)(F)F)c2)cc1` [Compound 3a, (R)-2-(1H-Imidazol-1-yl)-1-(4-methoxyphenyl)ethyl 3-(Trifluoromethyl)benzoate]: the inhibition at 50 µM in data set [5] (read-out: % inhibition at 50 μM) was 69%.

Take `COc1ccc([C@@H](Cn2ccnc2)OC(=O)c2cccc(C(F)(F)F)c2)cc1` [Compound 3b, (S)-2-(1H-Imidazol-1-yl)-1-(4-methoxyphenyl)ethyl 3-(Trifluoromethyl)benzoate]: the EC50 (commonly the midpoint of the concentration-response curve) in data set [5] (setting [12]) came to 24000 ± 900 nM; in data set [5] (supplement CSV), 24800 ± 900 nM.

`O=C(O[C@@H](Cn1ccnc1)c1ccc(F)cc1)c1cc(Cl)cc(Cl)c1` [Compound 4a, (R)-1-(4-Fluorophenyl)-2-(1H-imidazol-1-yl)ethyl 3,5-Dichlorobenzoate] yielded an EC50 in data set [5] (setting [12]) of 21500 ± 40 nM.

The compound `O=C(O[C@H](Cn1ccnc1)c1ccc(F)cc1)c1cc(Cl)cc(Cl)c1` [Compound 4b, (S)-1-(4-Fluorophenyl)-2-(1H-imidazol-1-yl)ethyl 3,5-Dichlorobenzoate] yielded an EC50 in data set [5] (setting [12]) of 4800 ± 50 nM.

On to `O=C(O[C@@H](Cn1ccnc1)c1ccc(Cl)cc1Cl)c1cccc(C(F)(F)F)c1` [Compound 5a, (R)-1-(2,4-Dichlorophenyl)-2-(1H-imidazol-1-yl)ethyl 3-(Trifluoromethyl)benzoate], for which the Kd in data set [2] (setting [11]) was 161 ± 8 nM. For the same compound, in data set [5] (setting [12]), the EC50 came out at 10200 ± 30 nM.

Regarding `O=C(O[C@H](Cn1ccnc1)c1ccc(Cl)cc1Cl)c1cccc(C(F)(F)F)c1` [Compound 5b, (S)-1-(2,4-Dichlorophenyl)-2-(1H-imidazol-1-yl)ethyl 3-(Trifluoromethyl)benzoate], the Kd in data set [2] (setting [11]) was 70 ± 2 nM. In data set [5] (setting [12]), this compound came in with an EC50 of 4300 ± 50 nM.

Take `O=C(O[C@H](Cn1ccnc1)c1ccc(Cl)cc1Cl)c1ccc(Cl)cc1Cl` [Compound 6b, (S)-1-(2,4-Dichlorophenyl)-2-(1H-imidazol-1-yl)ethyl 2,4-Dichlorobenzoate]: the dissociation constant Kd in data set [2] (setting [11]) is not above 5 nM. For the same compound, a half-maximal effect in data set [5] (setting [12]) (EC50) was put at 2600 ± 30 nM.

For the compound `O=C(O[C@H](Cn1cncn1)c1ccc(F)cc1)c1cccc(C(F)(F)F)c1` [Compound 7, (S)-1-(4-Fluorophenyl)-2-(1H-1,2,4-triazol-1-yl)ethyl 3-(Trifluoromethyl)benzoate], the Kd in data set [2] (setting [11]) was 87 ± 10 nM. The EC50 in data set [5] (setting [12]) is 20600 ± 40 nM.

Regarding `Fc1ccc([C@@H](Cn2ccnc2)OCc2cc(Cl)cc(Cl)c2)cc1` [Compound 8b, (S)-1-(2-((3,5-Dichlorobenzyl)oxy)-2-(4-fluorophenyl)ethyl)-1H-imidazole], the Kd in data set [2] (setting [11]) is 7 ± 2 nM. The “brain/plasma (B/P)” value in data set [6] (1 h) is given as 0.35. Also, the Kp (as a rule, the ratio of the level in a tissue or fluid to that in plasma or blood) at 1 h in data set [6] (setting [13]) worked out at 0.43 ± 0.08; in data set [6] (brain/plasma (B/P)), 0.51. In data set [5] (setting [12]), this compound gave a concentration for a half-maximal effect (EC50) of 2400 ± 40 nM.

Take `FC(F)(F)c1cccc(CO[C@H](Cn2ccnc2)c2ccc(Cl)cc2Cl)c1` [Compound 9b, (S)-1-(2-(2,4-Dichlorophenyl)-2-((3-(trifluoromethyl)benzyl)oxy)ethyl)-1H-imidazole]: the Kd in data set [2] (setting [11]) is not above 5 nM. Besides, in data set [6] (1 h), the “average brain distribution coefficient (brain/plasma ratio)” value is listed as approximately 1 and the “brain/plasma (B/P)” value stood at 1.14. Besides, the Kp at 1 h in data set [6] (setting [13]) was determined as 1.02 ± 0.12. The Kp at 1 h in data set [6] (brain/plasma (B/P)) was 0.89. In data set [5] (setting [12]), this compound came in with an EC50 of 1500 ± 20 nM.

As to `Clc1cc(Cl)cc(CO[C@H](Cn2ccnc2)c2ccc(Cl)cc2Cl)c1` [Compound 10b, (S)-1-(2-((3,5-Dichlorobenzyl)oxy)-2-(2,4-dichlorophenyl)ethyl)-1H-imidazole], the Kd in data set [2] (setting [11]) is not above 5 nM. The compound further displayed an EC50 in data set [5] (setting [12]) of 3500 ± 10 nM.

Consider `OC(Cn1cncn1)(Cn1cncn1)c1ccc(F)cc1F` [Fluconazole, fluconazole, reference compound], for which the Kd in data set [2] (setting [11]) is 141 ± 21 nM.

For the compound `CC[C@@H]([C@H](C)O)n1ncn(-c2ccc(N3CCN(c4ccc(OC[C@@H]5CO[C@@](Cn6cncn6)(c6ccc(F)cc6F)C5)cc4)CC3)cc2)c1=O` [Posaconazole], the EC50 in data set [7] is not above 10 nM. Further, the mice cured entry in data set [8] is “two of six mice cured”.

With `CCC(C)n1ncn(-c2ccc(N3CCN(c4ccc(OCC5COC(Cn6cncn6)(c6ccc(Cl)cc6Cl)O5)cc4)CC3)cc2)c1=O` (centres unmarked) [itraconazole], in data set [7], the EC50 was not above 10 nM.

These data come from publication PMC10758121, “Miconazole-like Scaffold is a Promising Lead for Naegleria fowleri-Specific CYP51 Inhibitors” (Journal of Medicinal Chemistry, 2023).
